Results reported in patent US20080089956A1, “NITRIC OXIDE IN TREATMENT OF INFLAMMATION” (AGA AB, priority 2003, published 2008).
Entries after “also recorded” stand apart in the source; their conditions may differ.

How the values were obtained:
Format in all cases: in vivo, piglets of Swedish country breed
[1] = system: endotoxin pig model (LPS-induced acute lung injury and septic shock); experiment: Haemodynamics and arterial oxygenation in endotoxin (LPS) pig model
Method: (§1) The pigs were divided into 5 groups: • 1. Normal control group • 2. Endotoxin (lipopolysaccharide, LPS) group • 3. LPS+INO group • 4. LPS+steoid group • 5. LPS +INO +steroid group • The different protocols are shown schematically in FIG. 1 and are described below. 1. Healthy Control Group (n=8)
(§2) After baseline measurements, acute lung injury and septic shock was induced by intravenous infusion of LPS 25 μg/kg/h in saline for 2.5 h, followed by 10 μg/kg/h for the remainder of the study. The pigs were followed by hemodynamics and blood gas measurements and were killed at the end of the experiment and tissue samples were taken, as described above.
(§3) LPS infusion was started after baseline measurements and continued for 6 hours. Two and half hours after commencement of the endotoxin infusion, inhalation of NO 30 ppm was started and maintained for 3.5 hours. Measurements were taken every hour to check for any protective effect of INO therapy on the lung and extra-pulmonary organs.
(§4) This group received endotoxin over 6 hours, as described above, and 2.5 hours after the start of endotoxin administration steroids were given i.v. and INO, 30 ppm, was commenced and continued for the remaining 3.5 hours study period.
(§5) NO, 1000 ppm in N2, was added to a mixture of O2/N2 and administered through the low-flow inlet of the ventilator. The inspired gas was passed through a canister containing soda lime to absorb any NO2. […] The concentrations of inspired NO and NO2 were measured continuously, by chemiluminescence (9841 NOx, Lear Siegler Measurement Controls Corporation, Englewood, Colo., USA), in the inspiratory limb of the ventilator tubing.

NF-κB = experiment: Expression of NF-κB, immunohistochemical staining of tissue from endotoxin-exposed piglets
Method: (§6) Anesthesia, surgery preparation and catheterizations were followed by 30 min of rest. Baseline measurements were then made. The pigs were followed for another 6 hours to establish control data over the whole study period. The pigs were killed after the last measurement with an intra-venous injection of KCl; and tissue samples were taken from the lung, liver and kidney for morphological and biochemical studies.
(§7) Anesthesia, surgery and catheterizations were similar to the controls. After baseline measurements, acute lung injury and septic shock was induced by intravenous infusion of LPS 25 μg/kg/h in saline for 2.5 h, followed by 10 μg/kg/h for the remainder of the study. […]
(§8) The antibodies were detected with the peroxidase-anti-peroxidase method using 3-amino-9-ethyl-carbazole (AEC, SIGMA Catalogue No. A-6926 Germany) as chromogen. […]
(§9) An image-analysis system consisting of a 12-bit cooled charge-coupled device camera (Sensys KAF 1400, Photometrics, Tucson, AZ) mounted on a fully automated Leica (Wetzlar, Germany) DM RXA microscope was used to digitize grey-scale images to a dual-Pentium 200 MHz host computer. […] The optimal central wavelength was determined by measurement of the substrate in a Leica MPV SP microscope photometer system (courtesy of Leica).

[2] = system: endotoxin pig model (LPS-induced acute lung injury and septic shock); experiment: Histological changes of lung, liver and kidney tissues in endotoxin pig model; set-up: Congestion / Inflammatory cell infiltrate / Congestion and hemorrhage / Edema/ Hemorrage: key to the marks not given beside the values
Method: as §1, §6, §2, §3, §4
as §5, with “tubing. FIO2 was checked after addition of NO and kept stable at the pre-INO level.” for “tubing.”

glucocorticoid receptor = experiment: GR expression, immunohistochemical staining of tissue from endotoxin-exposed piglets; settings: compared with LPS group
Method: as §6, §7, §8, §9

[3] = piglets during 6 h endotoxin infusion, treatment from 2.5 h
[4] = Kidney, piglets, LPS infusion 6 h, treatment from 2.5 h (INO 30 ppm; hydrocortisone 3.5 mg/kg i.v.)
[5] = Liver, piglets, LPS infusion 6 h, treatment from 2.5 h (INO 30 ppm; hydrocortisone 3.5 mg/kg i.v.)

## nitric oxide [LPS + INO]
[1]; [3]
  arterial oxygenation (PaO2), effect in words: improved oxygenation; also recorded: prevented part of the fall in PaO2
  mean pulmonary artery pressure (MPAP), effect in words: lowered MPAP but not back to normal; also recorded: attenuated the increase in MPAP
[1]; piglets during endotoxin infusion with INO 30 ppm, p<0.01 vs healthy controls
  MPAP higher than in healthy controls: 75-80%
NF-κB
  NF-kB expression in lung tissue, in words: at a low level
[2]; Kidney, endotoxin-exposed piglets, compared with LPS group / healthy
  histology changes of kidney tissue, in words: even less marked than in the LPS+Steroid group
[2]; [4]
  Edema/ Hemorrage: +++
  Inflammatory cell infiltrate: +++
[2]; Liver, endotoxin-exposed piglets, compared with LPS group / healthy
  histology changes of liver tissue, in words: much less than in the LPS group
[2]; [5]
  Congestion and hemorrhage: ++
  Destruction of the lobular structure: +
  Inflammatory cell infiltrate: +++
[2]; Lung, endotoxin-exposed piglets, compared with LPS group / healthy
  histology changes of lung tissue, in words: even less of these changes
[2]; Lung, piglets, LPS infusion 6 h, treatment from 2.5 h (INO 30 ppm for 3.5 h; hydrocortisone 3.5 mg/kg i.v.)
  Inflammatory cell infiltrate: +++
[2]; Lung, piglets, LPS infusion 6 h, treatment from 2.5 h (INO 30 ppm; hydrocortisone 3.5 mg/kg i.v.)
  Congestion: +++
[2]; endotoxin pig model, lung, liver and kidney (discussion)
  inflammatory response, in words: attenuated the inflammatory response but only to a limited degree
Glucocorticoid receptor
  expression of glucocorticoid receptor in lung tissue, in words: significantly raised
